# Data from patent publication US20240317707A1, “COVALENT AND NON-COVALENT INHIBITORS OF CORONAVIRUS PAPAIN-LIKE PROTEASE” (UT-Battelle, LLC, priority 2023, published 2024).
# Legend:
# [1] = in vitro; settings: African green monkey
# [2] = test system: SARS-CoV-2 isolate USA-WA1/2020; assay: microbe, parasite or virus in culture; type: cell-based; settings: Severe acute respiratory syndrome coronavirus 2, Vero C1008, Vero E6 TMPRSS ACE2 cells, treated 1 hr with compound, MOI=0.1, 48 h; for EC50: read-out: CPE EC50; for EC90: read-out: CPE EC90
SMILES,CC50 at 48 h [1] [µM],EC50 [2] [µM],EC90 [2] [µM]
COC(=O)/C=C/C(=O)NNC(=O)CCc1ccccc1C(=O)NC1(c2cccc3ccccc23)CC1 [NEU-7768],> 10,0.022,0.25
COC(=O)/C=C/C(=O)NNC(=O)CCc1ccccc1C(=O)NC1(c2cccc3ccccc23)COC1 [NEU-7769],> 10,1.5,3.2
COC(=O)/C=C/C(=O)NNC(=O)CCc1ccccc1C(=O)N[C@H](C)c1cccc(-c2cnc(CN3CC[C@H](O)C3)s2)c1 [NEU-7770],> 10,0.14,0.88
COC(=O)/C=C/C(=O)NNC(=O)CCc1ccccc1C(=O)N[C@@H](c1cccc2ccccc12)C(F)(F)F [NEU-7772],> 10,> 10,
COC(=O)/C=C/C(=O)NNC(=O)C(F)(F)c1ccccc1C(=O)N[C@H](C)c1cccc2ccccc12 [NEU-7792],> 10,0.24,0.82
C[C@@H](NC(=O)c1ccccc1CCC(=O)NNC(=O)/C=C/C(=O)O)c1cccc2ccccc12 [NEU-8114],> 10,0.015,0.16
